From PubChem BioAssay (NCI)
Values joined by “and” are separate entries in the source; they are usually repeats but may differ in a detail not shown here. Equal entries are not always repeated.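 Results reflect a 48-hour exposure of cells in 96-well plates to compound at five concentrations. GI50: concentration for 50% inhibition of growth. TGI: concentration producing complete growth inhibition.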

Tests used:
Assay in all cases: growth of human tumour cells (NCI), 48 h
SNB-78 CNS = system: SNB-78 CNS
IGROV1 ovarian = system: IGROV1 ovarian
MOLT-4 leukemia = system: MOLT-4 leukemia
SF-268 CNS = system: SF-268 CNS
HOP-92 NSCLC = system: HOP-92 NSCLC
LOX IMVI melanoma = system: LOX IMVI melanoma
K-562 leukemia = system: K-562 leukemia
HS 578T breast = system: HS 578T breast
MCF7 breast = system: MCF7 breast
RXF-631 renal = system: RXF-631 renal
MDA-N = system: MDA-N

SMILES	TGI (SNB-78 CNS)	TGI (IGROV1 ovarian)	TGI (MOLT-4 leukemia)	TGI (SF-268 CNS)	TGI (HOP-92 NSCLC)	TGI (LOX IMVI melanoma)	TGI (K-562 leukemia)	TGI (HS 578T breast)	GI50 (MCF7 breast)	TGI (MCF7 breast)	GI50 (IGROV1 ovarian)	GI50 (MOLT-4 leukemia)	GI50 (SF-268 CNS)	GI50 (HOP-92 NSCLC)	GI50 (LOX IMVI melanoma)	GI50 (K-562 leukemia)	GI50 (HS 578T breast)	TGI (RXF-631 renal)	GI50 (MDA-N)	TGI (MDA-N)
COc1cc2c(c(OC)c1OC)-c1ccc(SC)c(=O)cc1C(NC(=O)c1ccccc1)CC2 (configuration not stated)	> 90.9 µM	49.6 µM	43.4 µM	53.3 µM	3.79 µM	62.2 µM	> 68.1 µM	5.34 µM	–	–	–	–	–	–	–	–	–	–	–	–
Cc1ccc(/C=N\NC(=O)c2[nH]c3ccc(F)cc3c2-c2ccccc2)cc1	–	10.7 µM	> 39.5 µM	42.5 µM	50.3 µM	> 100 µM	15.5 µM	–	0.0299 µM	> 100 µM	0.0336 µM	0.0421 µM	0.23 µM	0.0363 µM	0.0339 µM	0.038 µM	0.0375 µM	–	–	–
C=CC(=O)Nc1cccc(Oc2nc(Nc3ccc(N4CCN(C)CC4)cc3)nc3ccsc23)c1	–	3.05 µM and 4.58 µM	7.08 µM and 5.53 µM	> 10 µM and 12.9 µM	6.47 µM and 4.97 µM	3.09 µM and 3.33 µM	4.97 µM and 4.87 µM	> 10 µM and 41.3 µM	2.22 µM and 1.72 µM	8.96 µM and 4.48 µM	1.42 µM and 1.75 µM	2.53 µM and 1.72 µM	3.48 µM and 2.73 µM	0.801 µM and 1.81 µM	1.69 µM and 1.75 µM	2.03 µM and 2.15 µM	6.16 µM and 4.88 µM	–	–	–
CC(=O)Nc1ccc(SC#N)c2c(NC(C)=O)cccc12	> 100 µM	> 100 µM	> 82.1 µM	> 100 µM	> 94.8 µM	> 100 µM	> 100 µM	–	–	–	–	–	–	–	–	–	–	> 100 µM	–	–
Cc1c(/C=N/N=C/c2[nH]c(C(=O)OC(C)(C)C)c(C)c2C)[nH]c(C(=O)OC(C)(C)C)c1C	> 100 µM	> 100 µM	> 100 µM	> 100 µM	> 100 µM	> 100 µM	> 100 µM	–	–	–	–	–	–	–	–	–	–	–	–	–
O=S(=O)(c1ccc(Cl)cc1)C(Cl)(Cl)Cl	–	23.5 µM	> 44.3 µM	20.6 µM	23.2 µM	6.58 µM	> 100 µM	29.2 µM	2.72 µM	> 100 µM	3.08 µM	0.91 µM	1.56 µM	1.71 µM	1.77 µM	1.6 µM	2.27 µM	–	–	–
COc1cc(C(=O)C/C(CCC(=O)Nc2ccccc2[N+](=O)[O-])=N\NC(N)=O)ccc1O	> 100 µM	> 100 µM	> 100 µM	> 100 µM	> 100 µM	> 100 µM	> 100 µM	–	–	–	–	–	–	–	–	–	–	> 100 µM	–	–
COC(=O)C1(C)CCc2c(OC)ccc(OC)c2C1=O (configuration not stated)	> 100 µM	> 100 µM	> 100 µM	> 100 µM	–	> 100 µM	> 100 µM	–	–	–	–	–	–	–	–	–	–	> 100 µM	–	–
O=C(O)CN1CCN(CC(=O)O)CC(=O)[O][Hg][O]C(=O)C1	–	28.4 µM	31.9 µM	52.6 µM	37.8 µM	26.7 µM	44.6 µM	> 71.3 µM	20.3 µM	45.1 µM	7.29 µM	9.02 µM	20.7 µM	20.6 µM	10.3 µM	17.9 µM	> 43.9 µM	–	16.7 µM	31.7 µM
NC(=O)c1csc(C2OC(CO)C(O)C2O)n1 (configuration not stated)	> 9480 µM	5650 µM	3600 µM	9040 µM	1300 µM	7900 µM	7060 µM	875 µM	76.3 µM	7340 µM	> 72.8 µM	17.8 µM	96.1 µM	–	> 53.2 µM	8.88 µM	77.7 µM	–	59.5 µM	> 6490 µM
Fc1ccc(C2SCc3nc4ccccc4n32)c(F)c1 (configuration not stated)	> 100 µM	> 100 µM	> 100 µM	> 100 µM	92.4 µM	> 100 µM	> 100 µM	–	–	–	–	–	–	–	–	–	–	> 100 µM	–	–
CC1(O)C=CC(=O)C=C1	97.2 µM	70.2 µM	> 72.7 µM	29.2 µM	> 100 µM	52.5 µM	> 100 µM	–	–	–	–	–	–	–	–	–	–	–	–	–
O=C1OC(=O)C(=C\c2ccc3c(c2)OCO3)/C1=C/c1ccc2c(c1)OCO2	–	> 100 µM	> 100 µM	> 100 µM	> 100 µM	> 100 µM	> 100 µM	> 100 µM	–	> 100 µM	–	–	–	–	–	–	–	–	–	> 100 µM
C[C@@H]1CN(Cc2ccc(F)cc2)[C@@H](C)CN1C(=O)c1cc2c(C(=O)C(=O)N(C)C)cn(C)c2cc1Cl	–	49.7 µM	45.5 µM	46.1 µM	56.5 µM	28.4 µM	88.6 µM	62.8 µM	15.2 µM	37.3 µM	19.5 µM	17.9 µM	18.5 µM	19.4 µM	14.2 µM	20.8 µM	19.8 µM	–	–	–
O=C(NC1CCCCC1)NS(=O)(=O)c1ccc2c(c1)CCC2	–	> 100 µM	> 100 µM	> 100 µM	> 100 µM	> 100 µM	> 100 µM	–	–	–	–	–	–	–	–	–	–	> 100 µM	–	–
O=C1OCC2=C1C(c1ccccc1)c1cc3c(cc1N2)OCO3 (configuration not stated)	–	50.2 µM	–	> 43.4 µM	7.63 µM	> 100 µM	32.7 µM	> 84.4 µM	0.0316 µM	17.3 µM	0.0816 µM	0.036 µM	0.0654 µM	0.141 µM	0.042 µM	–	0.0469 µM	–	–	–
